Experiments:
Format in all cases: in vivo, Cimex lectularius L.
bed bugs [1] = test: Screening of chemical lures in four-choice pitfall trap bioassays; conditions: for Trap catch versus corresponding unbaited control: four-choice bioassays, P<0.05; for Percent catch of bed bugs in pitfall traps, Mean (%) ± SE: four-choice: three lures and an unbaited control per arena, 50 μl lure, plastic tray arena, 50 bugs, 8 hours
Method: Bed bugs were collected from an infested house in Lakewood, N.J. They were maintained in plastic containers (4.7 cm height and 5 cm diameter) with folded paper as harborages at 26° C.±1° C., 40±10% relative humidity, a 12:12 hour (L:D) photoperiod, and were deprived of food for the entire duration of the study. All bioassays were conducted within 3 months after bed bugs were collected.
Pitfall traps were used to evaluate the attractiveness of lures. The pitfall trap was an inverted plastic dog bowl (600 ml volume, 18 cm diameter, 6.4 cm deep and 1 mm thickness) (IKEA, Baltimore, Md., USA) (FIG. 1a). The outer wall of the trap was covered with a layer of paper surgical tape (Caring International, Mundelein, Ill., USA), which was painted black with ColorPlace spray paint (WalMart Stores Inc., Bentonville, USA).
Two types of experimental arenas were used: a) wooden door arenas (200 by 76 cm by 6.4 cm) (length by width by height) with wooden floor, and b) plastic tray arenas (80 by 75 by 5 cm) (length by width by height) with bottom lined with brown paper (FIG. 1b). A layer of fluoropolymer resin (DuPont Polymers, Wilmington, Del., USA) was applied to inner walls of the experimental arenas to prevent the bugs from escaping. A layer of this resin was also applied to inner walls of the pitfall traps in a similar fashion to confine the bed bugs that fell into the traps. A filter paper (15 cm diameter) was placed on the floor in the center of each arena, and then a plastic ring (13.3 cm diameter and 6.4 cm height) was placed on the filter paper for confining the bed bugs. A piece of folded cardboard and folded fabric was placed on the filter paper to provide harborages for bed bugs. Six additional paper harborages measuring 5.1 cm long and 3.3 cm wide were placed along the edges of the floor of each wooden arena. Two wooden door arenas were located at least 6 m away from each other in a 15 m long and 9 m wide room at 23-25° C. Two additional wooden door arenas were located in two 4 m long and 2.3 m wide rooms at 24-25° C. These rooms had normal air current through vents on the ceilings or through the open door. In experiments using plastic tray arenas, four arenas were placed simultaneously in a non-ventilated, closed room measuring 4 m long and 2.3 m wide at 24-25° C. A 12:12 hour (L:D) cycle was maintained in all the rooms that were used for bioassays. […]
Twelve known or potential bed bug chemical lures (Table 1) were evaluated for their attractiveness to bed bugs in plastic tray arenas.

bed bugs [2] = test: Attractiveness of chemical lures in two-choice pitfall trap bioassays; conditions: baited versus unbaited trap, Kruskal-Wallis / Tukey's HSD
Method: These chemicals were further evaluated to confirm their attractiveness to bed bugs using two-choice assays. The experimental setup and testing procedure were similar to those described above however only two traps were placed at opposite corners of each arena (FIG. 1b). One trap was used as an unbaited control and the other trap received a chemical lure. Each chemical lure was evaluated 8 times over two consecutive days. The baited and non-baited trap positions in each arena were switched on the second day to eliminate any positional effect that could influence the trap catch. Percent attraction in multiple comparison experiments involving a control was calculated as: Percent attraction=100×(T−C)/Total, where “T” is the number of bed bugs in the baited pitfall trap and “C” is the number of bed bugs in the non-baited pitfall trap. “Total” is the total number of healthy bugs in each experiment arena at time of recording the bed bug locations. The percent catch is the number of bed bugs found in a pitfall trap divided by number of healthy bed bugs in each arena at the time of recording the results. Positive values indicate attraction to the treatment and negative values indicate repellency; and the values range from −100 (complete repellency) to +100 (complete attraction). For the paired design experiments, mean percent catch were analyzed by paired t-test (P=0.05). […]

bed bugs [3] = test: Relative attractiveness of four chemical lures in four-choice bioassays; conditions: for Percent of bed bugs captured in baited pitfall traps: four traps per arena, each baited with one of four chemicals, four replicates
Method: Four traps in each arena were baited with one of these chemicals. Four arenas were used to obtain four replicates. Percent attraction in multiple comparison experiments involving a control was calculated as: Percent attraction=100×(T−C)/Total, where “T” is the number of bed bugs in the baited pitfall trap and “C” is the number of bed bugs in the non-baited pitfall trap. “Total” is the total number of healthy bugs in each experiment arena at time of recording the bed bug locations. The percent catch is the number of bed bugs found in a pitfall trap divided by number of healthy bed bugs in each arena at the time of recording the results. Positive values indicate attraction to the treatment and negative values indicate repellency; and the values range from −100 (complete repellency) to +100 (complete attraction). For the paired design experiments, mean percent catch were analyzed by paired t-test (P=0.05). Mean percent attractions among the treatments were compared using the non-parametric Kruskal-Wallis tests followed by Tukey's HSD test. The data for Experiment 2.10.1 and 2.10.2 were pooled for analyzing differences among treatments (treatment×day interaction was insignificant from Analysis of Variance test).

bed bugs [4] = test: Effect of CO2 release rates on bed bug trap efficacy, door arenas; conditions: release rates 200, 300, 400 and 500 ml/min
Method: The two traps were placed at opposite ends equidistant (85 cm) from the center. The experiment was tested over 4 consecutive days. On each day, a different CO2 release rate was used in each arena following a Latin square design. The CO2 source was 5 lb cylinders (Airgas East Inc., Piscataway, N.J., USA). The tested release rates were: 200, 300, 400 and 500 ml/min. The rate was determined as ml of water displaced by CO2 per unit of time using a Bubble-O-Meter (Bubble-O-Meter, Dublin, Ohio, USA). The CO2 was introduced into 240 ml plastic cups that were placed on the pitfall traps (FIG. 1c). Two holes were made on the lid of each plastic cup for CO2 to escape. Fifty bed bug nymphs and adult males were released into the center of each arena and confined with a plastic ring. The bugs were acclimated for approximately 15 hours before starting the treatments. At 1 hour after dark cycle, the plastic ring confining the bugs was removed. The numbers of bed bugs trapped in the pitfall traps and those in the arenas were collected and counted after 8 hours. […] The number of dead or moribund bed bugs in each arena was very low (<5%) in all the bioassays. After counting, dead and moribund bugs were replaced with healthy bugs in each arena. All bugs were placed back to the center of the arenas and confined with plastic rings for 15 hours before starting next bioassay.

Compound | Trap catch versus corresponding unbaited control (bed bugs [1]) | Percent catch of bed bugs in pitfall traps, Mean (%) ± SE (bed bugs [1]) | other results
C=CC(O)CCCCC (stereo not drawn) [1-octen-3-ol] | significantly higher number of bugs than their corresponding controls | 28.3 ± 2.5a^a % | Attraction compared among lures (percent attraction) (bed bugs [2]): not significantly different from nonanal; Percent of bed bugs captured in baited pitfall traps (bed bugs [3]): 17.0±1.8%
CC(=O)CCC=C(C)C [6-Methyl-5-Hepten-2-one] | – | 20.9 ± 2.52ab % | –
OCc1ccccc1 [Benzyl alcohol] | – | 25.1 ± 3.4ab % | –
O=C=O [CO2, carbon dioxide] | – | – | Attraction of bed bugs to traps baited with CO2 (bed bugs [4]): very attractive to bed bugs regardless of the CO2 release rates
C[C@H](O)C(=O)O [L-lactic acid] | significantly higher number of bugs than their corresponding controls | 25.7 ± 2.7a % | –
CCCCCCCCC=O [Nonanal] | significantly higher number of bugs than their corresponding controls | 27.7 ± 3.2a % | Attraction compared among lures (percent attraction) (bed bugs [2]): significantly more attractive than L-lactic acid, and L-carvone; Percent of bed bugs captured in baited pitfall traps (bed bugs [3]): 34.0±4.6%; Attractiveness relative to spearmint oil, 1-octen-3-ol or coriander Egyptian oil (bed bugs [3]; four-choice comparison, P=0.01): approximately 2 fold
CC(O)c1ccccc1 (stereo not drawn) [Styralol] | – | 16.4 ± 2.4bc % | –
CC(=O)CC/C=C(/C)CCC=C(C)C [Z-Geranyl Acetone] | – | 13.0 ± 2.4a % | –
L-carvone | significantly higher number of bugs than their corresponding controls | 27.5 ± 3.5a % | –
